Test results published in article PMC7179183, “Design of Biphenyl-Substituted Diarylpyrimidines with a Cyanomethyl Linker as HIV-1 NNRTIs via a Molecular Hybridization Strategy” (Molecules, 2020).
Like-named read-outs stand apart in the source and are kept apart here.

What was measured:
WT HIV-1 = conditions: cited from earlier work
[1] = cited from earlier work
[2] = tested on: E138K mutant HIV-1 strain; assay: Anti-HIV-1 activity against E138K mutant strain in MT-4 cells; assay type: cell-based; conditions: Human immunodeficiency virus 1, MT4, read-out: EC50 E138K
[3] = tested on: K103N mutant HIV-1 strain; assay: Anti-HIV-1 activity against K103N mutant strain in MT-4 cells; assay type: cell-based; conditions: Human immunodeficiency virus 1, MT4, read-out: EC50 K103N
[4] = tested on: F227L + V106A double RT mutant HIV-1 strain; assay: Anti-HIV-1 activity against F227L + V106A double mutant strain in MT-4 cells; assay type: cell-based; conditions: Human immunodeficiency virus 1, MT4, read-out: EC50 F227L + V106A
[5] = tested on: K103N + Y181C double RT mutant HIV-1 strain; assay: Anti-HIV-1 activity against K103N + Y181C double mutant strain in MT-4 cells; assay type: cell-based; conditions: Human immunodeficiency virus 1, MT4, read-out: EC50 K103N + Y181C
[6] = Cytotoxicity in uninfected MT-4 cells, MTT method; assay type: cell-based; conditions: human; uninfected MT-4 cells; viability reduced by 50%; read-out: CC50
Method: (§1) The newly synthesized compounds were evaluated for their potency and cytotoxicity against the WT HIV-1 (strain IIIB) in MT-4 cells using the MTT method. The biological evaluation results are represented as EC50 values (anti-HIV-1 activity), CC50 values (cytotoxicity), and SI values (selectivity index, CC50/EC50 ratio).

WT HIV-1 (strain IIIB) = assay: microbe, parasite or virus in culture; assay type: cell-based
Method: as §1

[7] = tested on: Y188L mutant HIV-1 strain; assay: Anti-HIV-1 activity against Y188L mutant strain in MT-4 cells; assay type: cell-based; conditions: Human immunodeficiency virus 1, MT4, read-out: EC50 Y188L
[8] = tested on: L100I mutant HIV-1 strain; assay: Anti-HIV-1 activity against L100I mutant strain in MT-4 cells; assay type: cell-based; conditions: Human immunodeficiency virus 1, MT4, read-out: EC50 L100I
[9] = tested on: Y181C mutant HIV-1 strain; assay: Anti-HIV-1 activity against Y181C mutant strain in MT-4 cells; assay type: cell-based; conditions: Human immunodeficiency virus 1, MT4, read-out: EC50 Y181C
[10] = statement in the introduction, no reference given
[11] = Human immunodeficiency virus 1, IIIB, MT4, MT-4 cells, protection against virus-induced cytopathicity by 50%, mean of at least three experiments, read-out: EC50 HIV-1 IIIB

Row | SMILES | EC50 (WT HIV-1; read-out: EC50 anti-HIV potency) [nM] | CC50 ([1]; lead compound) [nM] | EC50 (WT HIV-1; read-out: EC50 WT HIV-1) [nM] | EC50 [2] [nM] | EC50 [3] [nM] | CC50 [1, 10] [nM] | EC50 [4] [nM] | EC50 [5] [nM] | CC50 [6] [nM] | EC50 (WT HIV-1 (strain IIIB); Human immunodeficiency virus 1, MT4, read-out: EC50 HIV-1 IIIB) [nM] | EC50 [7] [nM] | EC50 [8] [nM] | EC50 [9] [nM] | EC50 (WT HIV-1 (strain IIIB); [11]) [nM]
1 | Cc1cc(C(C#N)c2ccccc2F)nc(Nc2ccc(C#N)cc2)n1 (centres unmarked) [Compound 1] | 1.8 |  |  |  |  |  |  |  |  |  |  |  |  | 
2 | Cc1cc(-c2ccc(C#N)cc2)cc(C)c1Nc1ccnc(Nc2ccc(C#N)cc2)n1 [Compound 2] |  | 2100 | 1 ± 0.6 |  |  |  |  |  |  |  |  |  |  | 
3 | Cc1cc(C#N)cc(C)c1Oc1nc(Nc2ccc(C#N)cc2)nc(N)c1Br [ETR, etravirine, reference compound] |  |  |  | 8 ± 4 | 3 ± 1 | ~6000 | 14 ± 5 | 40 ± 10 | > 4600 | 4.5 ± 1 | 17 ± 6 | 8 ± 2 | 17 ± 3 | 
4 | Cc1ccnc2c1NC(=O)c1cccnc1N2C1CC1 [NVP, nevirapine, reference compound] |  |  |  | 200 ± 150 | 4700 ± 630 |  | ≥ 4280 | > 15000 | > 15000 |  | ≥ 4620 | 980 ± 390 | 6070 ± 1550 | 200 ± 100
5 | Cc1cc(/C=C/C#N)cc(C)c1Nc1ccnc(Nc2ccc(C#N)cc2)n1 [RPV, rilpivirine, reference compound] |  |  |  | 3 ± 1 | 1 ± 0.2 | ~6000 | 44 ± 12 | 9 ± 2 | 5890 ± 310 |  | 30 ± 9 | 2 ± 1 | 3 ± 1 | 1.6 ± 0.3
